Results published in patent US20120230951A1 (priority 2011, published 2012).
pIC50: −log10 of the molar value. Read-outs that look alike come from different tables or passages of the source.

Tests used:
[1] = test system: HCV GT1b replicon (2209-23 cell line, GT-1b Con1 subgenomic replicon in Huh-7); test: HCV GT1b replicon luciferase reporter assay; assay type: cell-based; details: Hepatitis C virus; for pIC50: Huh-7, 2209-23 cells (GT-1b Con1), Renilla luciferase read 72 hours after addition of compounds, read-out: GT-1b (IC50)
Text: Determination of compounds HCV GT1b inhibitory replicon activity using the replicon luciferase reporter assay
The 2209-23 cell line was developed at Roche by stable transfection of the hepatoma cell line Huh-7 with a GT-1b Con1 subgenomic bicistronic replicon as previously described. Subgenomic replicon cell line was established in cured Huh7 cells, obtained from R. Bartenschlager (J. Virol. 2003 March; 77 (5):3007-19) The GT-1a H77 subgenomic replicon vector pRLuc H771b 75 S/I, was created by replacing the non structural region of the GT-1b Con1 subgenomic replicon by the one of the H77 strain, except for the first 75 amino acids of the NS3 protein that are from GT-1b Con1 strain. (J. Virol. 2001 77:5352-59) The GT-1a pRLuc H771b 75 S/I subgenomic replicon cell line was established in cured Huh7 cells, obtained from R. Bartenschlager. (J. Virol. 2003 March; 77 (5):3007-19)
All the subgenomic replicon cell lines were cultured in Dulbecco's Modified Eagle Medium (DMEM-Glutamax™-I; Invitrogen Cat #10569-010). The medium was supplemented with 10% Fetal Bovine Serum (Invitrogen Cat #10082-147), 1% penicillin/streptomycin (Mediatech Cat #30-002-CI) and 500 μg/ml of G418 (Mediatech Cat #30-234-CI). Cells were maintained at 37° C. in a humidified 5% CO2 atmosphere.
2209-23 cells were plated at a cell density of 5000 cells per well in 96 well plates (Becton Dickinson, Cat #35 3296). Cells were plated in 90 μl of Dulbecco's Modified Eagle Medium (DMEM-Glutamax™-I), (Invitrogen Cat #10569-010) medium was supplemented with 5% Fetal Bovine Serum (Invitrogen Cat #10082-147), 1% penicillin/streptomycin (Mediatech Cat #30-002-CI). The pRluc H771b 75 S/I cells were plated in 96-well plate at 3000 cells/well in DMEM-Glutamax™-I containing 5% FBS and 1% penicillin/streptomycin in 90 μl final volume. Cells were allowed to equilibrate for 24 hours at 37° C. and 5% CO2 at which time compounds were added. Compounds (or medium as a control) were added 24 hours post-plating in 3 fold dilutions at a final DMSO concentration of 1% in 10 ul volume. Renilla luciferase reporter signal was read 72 hours after addition of compounds using the Renilla Luciferase Assay System (Promega, cat #E2820). EC50 values were defined as the compound concentration at which a 50% reduction in the levels of renilla luciferase reporter was observed as compared to control samples in the absence of compound and was determined by non-linear fitting of compound dose-response data. The EC50 was approximated if maximum percentage inhibition was less than 90% and more than 70%.

[2] = test system: GT-1a pRLuc H771b 75 S/I subgenomic replicon cell line; test: HCV GT-1a replicon luciferase reporter assay; assay type: cell-based; details: Hepatitis C virus, GT1A, 72 h, read-out: GT-1a (IC50) (nM)
How it was run: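 Huh-7-derived subgenomic replicon cells (GT-1b Con1 2209-23, 5000/well; GT-1a H77 chimera with Con1 NS3 first 75 aa, 3000/well) in 5% FBS DMEM; compounds added 24 h post-plating, 3-fold dilutions, 1% DMSO. Renilla luciferase read after 72 h; EC50 is 50% signal reduction versus untreated, non-linear fit.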

Structure (SMILES) | pIC50 [1] | IC50 [2] | IC50 ([1]; Huh-7, 72 h, read-out: GT-1b (IC50) (nM))
COC(=O)N[C@H]1CCc2cccc3c2N(C1=O)[C@H](c1nc2ccc(-c4ccc(-c5ccc(-c6cnc([C@@H]7CCCN7C(=O)[C@@H](NC(=O)OC)C(C)C)[nH]6)cc5)cc4)cc2[nH]1)C3 [Compound I-11, {(2S,5S)-2-[6-(4′-{2-[(S)-1-((S)-2-Methoxycarbonylamino-3-methyl-butyryl)-pyrrolidin-2-yl]-3H-imidazol-4-yl}-biphenyl-4-yl)-1H-benzoimidazol-2-yl]-4-oxo-1,2,4,5,6,7-hexahydro-azepino[3,2,1-hi]indol-5-yl}-carbamic methyl ester] | 8.55 | 19.2 nM | –
COC(=O)N[C@H]1CCc2cccc3c2N(C1=O)[C@H](c1ncc(-c2cnc4cc(-c5ccc(-c6cnc([C@@H]7CC(F)(F)CN7C(=O)[C@@H](NC(=O)OC)C(C)C)[nH]6)cc5)ccc4c2)[nH]1)C3 [Compound I-19, ((2S,5S)-2-{5-[7-(4-{2-[(S)-1-((S)-2-Methoxycarbonylamino-3-methyl-butyryl)-4,4-difluoro-pyrrolidin-2-yl]-3H-imidazol-4-yl}-phenyl)-quinolin-3-yl]-1H-imidazol-2-yl}-4-oxo-1,2,4,5,6,7-hexahydro-azepino[3,2,1-hi]indol-5-yl)-carbamic acid methyl ester trifluroacetic acid] | – | 2.89 nM | 0.16 nM
COC(=O)N[C@H]1CC(=O)c2cccc3c2N(C1=O)[C@H](c1ncc(-c2ccc(-c4ccc(-c5cnc([C@@H]6CCCN6C(=O)[C@@H](NC(=O)OC)C(C)C)[nH]5)cc4)cc2)[nH]1)C3 [Compound I-28, {(2S,5S)-2-[5-(4′-{2-[(S)-1-((S)-2-Methoxycarbonylamino-3-methyl-butyryl)-pyrrolidin-2-yl]-3H-imidazol-4-yl}-biphenyl-4-yl)-1H-imidazol-2-yl]-4,7-dioxo-1,2,4,5,6,7-hexahydro-azepino[3,2,1-hi]indol-5-yl}-carbamic acid methyl ester] | 11.00 | 1.81 nM | –
COC(=O)N[C@H]1CC(O)c2cccc3c2N(C1=O)[C@H](c1ncc(-c2ccc(-c4ccc(-c5cnc([C@@H]6CCCN6C(=O)[C@@H](NC(=O)OC)C(C)C)[nH]5)cc4)cc2)[nH]1)C3 (stereo partly drawn) [Compound I-29, {(2S,5S)-7-Hydroxy-2-[5-(4′-{2-[(S)-1-((S)-2-methoxycarbonylamino-3-methyl-butyryl)-pyrrolidin-2-yl]-3H-imidazol-4-yl}-biphenyl-4-yl)-1H-imidazol-2-yl]-4-oxo-1,2,4,5,6,7-hexahydro-azepino[3,2,1-hi]indol-5-yl}-carbamic acid methyl ester] | 11.00 | 1.02 nM | –
COC(=O)N[C@H]1CCc2cccc3c2N(C1=O)[C@H](c1ncc(-c2ccc(-c4ccc5cc(-c6cnc([C@@H]7CCCN7C(=O)[C@@H](NC(=O)OC)C(C)C)[nH]6)ccc5c4)cc2)[nH]1)C3 [Compound I-31, {(2S,5S)-2-[5-(4-(6-{2-[(S)-1-((S)-2-Methoxycarbonylamino-3-methyl-butyryl)-pyrrolidin-2-yl]-3H-imidazol-4-yl}-naphthalen-2-yl)-phenyl)-1H-imidazol-2-yl]-4-oxo-1,2,4,5,6,7-hexahydro-azepino[3,2,1-hi]indol-5-yl}-carbamic acid methyl ester] | 9.39 | 1.13 nM | –
COC(=O)N[C@H]1CCc2cccc3c2N(C1=O)[C@H](c1ncc(-c2ccc(-c4ccc(-c5cnc([C@@H]6CCCN6C(=O)[C@@H](NC(=O)OC)C(C)C)[nH]5)cc4)c(F)c2)[nH]1)C3 [Compound I-35, {(2S,5S)-2-[5-(2-Fluoro-4′-{2-[(S)-1-((S)-2-methoxycarbonylamino-3-methyl-butyryl)-pyrrolidin-2-yl]-1H-imidazol-4-yl}-biphenyl-4-yl)-1H-imidazol-2-yl]-4-oxo-1,2,4,5,6,7-hexahydro-azepino[3,2,1-hi]indol-5-yl}-carbamic acid methyl ester] | 11.00 | 5.92 nM | –
COC(=O)N[C@@H](CCS(C)(=O)=O)C(=O)N1CCC[C@H]1c1ncc(-c2ccc(-c3ccc(-c4cnc([C@@H]5Cc6cccc7c6N5C(=O)[C@@H](NC(=O)OC)CC7)[nH]4)cc3)cc2)[nH]1 [Compound I-51, {(2S,5S)-2-[5-(4-{2-[(S)-1-((S)-4-Methanesulfonyl-2-methoxycarbonylamino-butyl)-pyrolidin-2-yl]-3H-imidazol-4-yl}-biphenyl-4-yl)-1H-imidazol-2-yl]-4-oxo-1,2,4,5,6,7-hexahydro-azepino[3,2,1-hi]indol-5-yl}-carbamic acid methyl ester] | 10.52 | 16.6 nM | –
COC(=O)N[C@H]1CCc2cccc3c2N(C1=O)[C@H](c1ncc(-c2ccc(-c4cnc5cc(-c6cnc([C@@H]7CCCN7C(=O)[C@@H](NC(=O)OC)C(C)C)[nH]6)ccc5n4)cc2)[nH]1)C3 [Compound I-52, ((2S,5S)-2-{5-[4-(6-{2-[(S)-1-((S)-2-Methoxycarbonylamino-3-methyl-butyryl)-pyrrolidin-2-yl]-3H-imidazol-4-yl}-quinoxalin-2-yl)-phenyl]-1H-imidazol-2-yl}-4-oxo-1,2,4,5,6,7-hexahydro-azepino[3,2,1-hi]indol-5-yl)-carbamicacid methyl ester] | 10.52 | 0.41 nM | –
COC(=O)N[C@H]1CCc2cccc3c2N(C1=O)[C@H](c1ncc(-c2ccc(-c4cnc5cc(-c6cnc([C@@H]7CCCN7C(=O)[C@H](NC(=O)OC)c7ccccc7)[nH]6)ccc5n4)cc2)[nH]1)C3 [Compound I-55, ((2S,5S)-2-{5-[4-(6-{2-[(S)-1-((R)-2-Methoxycarbonylamino-2-phenyl-acetyl)-pyrrolidin-2-yl]-3H-imidazol-4-yl}-quinoxalin-2-yl)-phenyl]-1H-imidazol-2-yl}-4-oxo-1,2,4,5,6,7-hexahydro-azepino[3,2,1-hi]indol-5-yl)-carbamic acid methyl ester] | 11.00 | 0.79 nM | –
COC(=O)N[C@H]1CCc2cccc3c2N(C1=O)[C@H](c1ncc(-c2ccc4nc(-c5ccc(-c6cnc([C@@H]7CCCN7C(=O)[C@@H](NC(=O)OC)C(C)C)[nH]6)cc5)cnc4c2)[nH]1)C3 [Compound I-59, ((2S,5S)-2-{5-[2-(4-{2-[(S)-1-((S)-2-Methoxycarbonylamino-3-methyl-butyryl)-pyrrolidin-2-yl]-3H-imidazol-4-yl}-phenyl)-quinoxalin-6-yl]-1H-imidazol-2-yl}-4-oxo-1,2,4,5,6,7-hexahydro-azepino[3,2,1-hi]indol-5-yl)-carbamic acid methyl ester] | 10.15 | 0.709 nM | –
